These results are taken from patent US10391113B2, “Compatible composition containing chinese medicine cichorium glandulosum boiss et hout as lipid-lowering active ingredient” (Nanjing Ruiying Runze Biopharmaceutical Technology Co., Inc., priority 2014, dated 2019).

Experiment [1] has as its system high fat diet induced rat lipid metabolism disorder model. As to the kind of experiment: High fat diet induced rat lipid metabolism disorder model. It is filed as in vivo, SD rat. To be noted: 0.1 g/kg by gavage once a day, high fat feedstuff, after the eighth week. The method, then:
Experiment method: 90 SD rats are normally fed for 1 week, the normal group of 10 rats are fed common feedstuff, and others are fed high fat feedstuff (basic feedstuff 88%, lard 10% and cholesterol 2%). 4 weeks later, the rats fed high fat feedstuff are randomly divided into 5 groups, each group of 10. […] The rats in the bezafibrate group are fed bezafibrate 100 mg/kg at the same time as the high fat feedstuff feeding respectively. The tested sample groups are given 100 mg/kg by gavage respectively at the same time as the high fat feedstuff feeding, once a day. The experiment animals can freely drink water and take food, and are fed separately in cages in light and dark for 12 hours, respectively, in a SPF grade animal lab under 25±2° C. After the eighth week of the experiment, the rats are fasted for 16 hours, collected blood from arteria cruralis, sacrificed by dislocating the cervical vertebra, taking out the liver, and preparing serum and liver tissue homogenate in conventional method. The triglyceride (TG), total cholesterol (TC), high density lipoprotein (HDL-C), low density lipoprotein (LDL-C), glutamic-pyruvic transaminase (ALT) and glutamic-oxalacetic transaminase (AST) content in the serum and liver is detected.

Another experiment concerns HepG2 cell. As to the kind of experiment: Lipid droplet content of free fat acid (FFA) induced HepG2 cell (nile red, flow detection). The format is cell-based. The conditions noted are these: 24 hours, geometric median of fluorescence intensity, means ± s.d., n = 3, model group 222.64 ± 8.34. As for the experimental part: Experiment method: the HepG2 cells in the logarithmic growth phase are taken having a growth density of 80%, and inoculated into 6-well plate at 1×10^5 per well. After culturing cells for 24 hours, the supernatant is discarded, and the cells are washed with PBS three times. […] Except for the blank control group, all of the other groups are added FFA having a final concentration of 1 mmol/L, and the remaining volume is completed to 2 mL with the DMEM medium containing 10% fetal bovine serum, 24 hours after administration, washed with PBS in 37° C. three times, digested by the pancreatin, centrifugated, the supernatant is discarded, the cells are resuspended with PBS, and the final concentration is adjusted to 1 μg/mL by adding nile red dye.

The subject of another experiment is rat primary hepatocyte. Briefly: Influence on the lipid droplet content of the rat primary hepatocyte (FFA hyperlipidemia model, nile red, flow detection). It is filed as cell-based, SD rat. The conditions noted are these: administration dose 20 μM total molar concentration; 1 mmol/L FFA; 24 hours; means ± s.d., n = 3; versus model group. As for the experimental part:
The hepatocyte is taken out from the SD rat liver by using Seglen two steps in situ circulatory perfusion method, filtered through 100-mesh sieve, centrifugated for 3 min at 500 rpm and 4° C., and the supernatant is discarded, and the hepatocyte is washed three times in the same way. The number of living cells and the cell survival rate is obtained by counting the cell, and the cells are added in the plate at 1.0*10^6 cell/mL medium. The cells are cultured for 24 hours, then the supernatant is discarded, and the cells are washed with PBS three times. […] Other groups are adjusted to a final volume of 2 mL with Williams'E medium without serum, and 24 hours after administration, washed with PBS in 37° C. three times, digested by the pancreatin, centrifugated, the supernatant is discarded, the cells are resuspended with PBS, and the final concentration is adjusted to 1 μg/mL by adding nile red dye. […] Using D-Optimal experimental design method in the mixture experimental design, calculation is carried out by using response surface analysis method and using Design expert8.05b software. Choosing D-optimal in the Mixture option, analysis is carried out by entering compatible ratio of the compatible groups and the test results in Table 2.

[2] abbreviates: administration dose 20 μM, 1 mM FFA.

For the compound `CC(C)(Oc1ccc(CCNC(=O)c2ccc(Cl)cc2)cc1)C(=O)O` [bezafibrate], the “Weight” value in experiment [1] was found to be 433.15 ± 24.53 g. In experiment [1] (listed under liver), the “ALT (U/L)” value was 107.9 ± 14.12 U/L and the “AST (U/L)” value is given as 217.8 ± 33.93 U/L. Further, in experiment [1] (liver), the “liver TC (mg/g liver)” value is reported as 33 ± 12.23 mg/g liver and the “liver TG (mg/g liver)” value is listed as 186 ± 37.92 mg/g liver. Moreover, in experiment [1] (serum), the “serum HDL-C” value turned out to be 1.58 ± 0.29 mmol/L, the “serum LDL-C” value was 0.54 ± 0.30 mmol/L, the “serum TC” value was 1.58 ± 0.17 mmol/L and the “serum TG” value came out at 0.88 ± 0.19 mmol/L. This compound also registered a lipid droplet content with HepG2 cell (administration dose 100 μM) of 178.84 ± 2.84.
`O=c1c(O[C@@H]2O[C@H](CO)[C@@H](O)[C@H](O)[C@H]2O)c(-c2ccc(O)c(O)c2)oc2cc(O)cc(O)c12` [isoquercitrin]: in the experiment on rat primary hepatocyte, the “decrease of the lipid droplet content (%)” value (shortened to “decrease … (%)”) is 7.52 ± 1.63%. The lipid droplet content in the experiment on HepG2 cell (setting [2]) came out at 200.61 ± 8.43.
Regarding `O=C(O)[C@H]1O[C@@H](Oc2c(-c3ccc(O)c(O)c3)oc3cc(O)cc(O)c3c2=O)[C@H](O)[C@@H](O)[C@@H]1O` [quercetin-3-O-β-D-glucuronide], the “decrease … (%)” value in the experiment with rat primary hepatocyte turned out to be 8.07 ± 0.92%. The lipid droplet content in the experiment with HepG2 cell (setting [2]) is on record as 153.38 ± 2.88.
`O=c1c(O)c(-c2ccc(O)c(O)c2)oc2cc(O)cc(O)c12` [quercetin]: the “decrease … (%)” value with rat primary hepatocyte was found to be 7.01 ± 1.03%. Further, in the experiment with HepG2 cell (setting [2]), the lipid droplet content is reported as 198.25 ± 6.04.
